Columns and labels:
[1] = Efflux ratio of permeability from basolateral to apical to apical to basolateral side in human 21 days cultured Caco-2 cells; assay type: ADME, cell-based
[2] = (§1) Intrinsic clearance in rat liver microsomes assessed per mg of protein; assay type: ADME, Microsome; conditions: liver microsomes
[3] = target: C-C chemokine receptor type 5 (Homo sapiens, UniProt P51681); assay: Displacement of [125I]RANTES from human CCR5 receptor co-transfected with Galphai6 in CHO cells; assay type: cell-based
[4] = (§2) Intrinsic clearance in human liver microsomes assessed per mg of protein; assay type: ADME, Microsome; conditions: liver microsomes
[5] = Permeability from apical to basolateral side of the human 21 days cultured Caco-2 cells; assay type: ADME, cell-based; conditions: read-out: permeability
[6] = tested on: Human immunodeficiency virus 1; assay: Antiviral activity against recombinant HIV1 virus infected in human JC53BL cells after 3 days; assay type: functional, organism-based; conditions: Human immunodeficiency virus 1, JC53BL, 72 h
[7] = Oral bioavailability in rat at 10 mg/kg; assay type: ADME, organism-based; conditions: in vivo
Liver microsomes [8] = assay: as §1; assay type: ADME, Microsome; conditions: microsomes
Liver microsomes [9] = assay: as §2; assay type: ADME, Microsome; conditions: microsomes
Homo sapiens = species: Homo sapiens; assay: Hepatic blood flow in human; assay type: ADME, organism-based, Liver

C-C chemokine receptor type 5, sequence (P51681 whole entry): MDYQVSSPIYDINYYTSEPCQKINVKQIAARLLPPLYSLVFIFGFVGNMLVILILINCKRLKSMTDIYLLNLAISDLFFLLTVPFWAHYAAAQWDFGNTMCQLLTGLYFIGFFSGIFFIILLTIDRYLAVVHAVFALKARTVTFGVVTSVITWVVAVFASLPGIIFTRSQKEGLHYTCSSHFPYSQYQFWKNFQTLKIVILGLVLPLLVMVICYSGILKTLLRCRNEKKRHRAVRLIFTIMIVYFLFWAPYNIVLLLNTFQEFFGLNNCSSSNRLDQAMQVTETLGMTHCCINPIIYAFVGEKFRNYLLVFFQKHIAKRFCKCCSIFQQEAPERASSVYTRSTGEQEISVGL

SMILES	IC50 [3] [nM]	microsomal CLint [4] [µL/min/mg]	IC50 [6] [nM]	other results
CCCCC1N(CC2CCCCC2)C(=O)OC12CCN(C1CCN(C(=O)c3ccccc3C)CC1)CC2 (centres undefined)	100		> 625	
CCCCC1N(CC2CCCC2)C(=O)OC12CCN(C1CCN(C(=O)c3c(C)cccc3C)CC1)CC2 (centres undefined)	18		> 625	
CCCCC1CN(CC2CCOCC2)C(=O)OC12CCN(C1CCN(C(=O)c3c(C)ncnc3C)CC1)CC2 (centres undefined)	76		405	
CCCCC1N(CC2CCOCC2)C(=O)OC12CCN(C1CCN(C(=O)c3c(C)cccc3C)CC1)CC2 (centres undefined)	24		> 625	
CCCC[C@@H]1CN(CC2CCOCC2)C(=O)OC12CCN(C1(C)CCN(C(=O)c3c(C)ncnc3C)CC1)CC2	100	17	> 625	
CCCC[C@H]1CN(CC2CCCCO2)C(=O)OC12CCN(C1(C)CCN(C(=O)c3c(C)ccnc3C)CC1)CC2 (some centres undefined)	10	53	55	
CCCC[C@H]1CN(C2CCOCC2)C(=O)OC12CCN(C1(C)CCN(C(=O)c3c(C)ncnc3C)CC1)CC2			84	
CCCCC1N(Cc2ccccc2)C(=O)OC12CCN(C1CCN(C(=O)c3c(C)cccc3C)CC1)CC2 (centres undefined)	144		> 625	
CCCC1N(CC2CCCCC2)C(=O)OC12CCN(C1CCN(C(=O)c3c(C)cccc3C)CC1)CC2 (centres undefined)	300		> 625	
CCCCC1N(CC2CCOCC2)C(=O)OC12CCN(C1(C)CCN(C(=O)c3c(C)ncnc3C)CC1)CC2 (centres undefined)	58	27	375	efflux ratio [1]: 31; Papp A→B [5]: 0.6 ×10⁻⁶ cm/s
CCCCC1N(CC2CCCCC2)C(=O)OC12CCN(C1CCN(C(=O)c3c(C)cccc3C)CC1)CC2 (centres undefined)	51	675	125	microsomal CLint [2]: 2000 µL/min/mg

Compounds with a lower IC50 [6], results first:

IC50 [3] [nM]	microsomal CLint [4] [µL/min/mg]	IC50 [6] [nM]	SMILES	other results
10	526	< 1.2	CCCCC1N(CC2CCCCC2)C(=O)OC12CCN(C1(C)CCN(C(=O)c3c(C)cccc3C)CC1)CC2 (centres undefined)	efflux ratio [1]: 0.4; microsomal CLint [2]: 523 µL/min/mg; Papp A→B [5]: 14 ×10⁻⁶ cm/s
7	162	46	CCCCC1N(CC2CCCCC2)C(=O)OC12CCN(C1(C)CCN(C(=O)c3c(C)ncnc3C)CC1)CC2 (centres undefined)	
68		31	CCCCC1CN(CC2CCCCC2)C(=O)OC12CCN(C1CCN(C(=O)c3c(C)ncnc3C)CC1)CC2 (centres undefined)	bioavailability [7]: 43%; clearance (Liver microsomes [8]): 80 µL/min/mg; clearance (Liver microsomes [9]): 119 µL/min/mg; LBF (Homo sapiens): 82%
89	164	24	CCCCC1CN(CC2CCOCC2)C(=O)OC12CCN(C1CCN(C(=O)c3c(C)cccc3C)CC1)CC2 (centres undefined)	
80		52	CCCC[C@H]1CN(CC2CCOCC2)C(=O)OC12CCN(C1(C)CCN(C(=O)c3c(C)cc[n+]([O-])c3C)CC1)CC2	
12	36	3	CCCC[C@H]1CN(CC2CCOCC2)C(=O)OC12CCN(C1(C)CCN(C(=O)c3c(C)cc(=O)oc3C)CC1)CC2	
97	46	3	CCCC[C@H]1CN(CC2CCOCC2)C(=O)OC12CCN(C1(C)CCN(C(=O)c3c(C)nc(C(F)(F)F)nc3C)CC1)CC2	
27	106	2	CCCC[C@H]1CN(CC2CCC(F)(F)CC2)C(=O)OC12CCN(C1(C)CCN(C(=O)c3c(C)ncnc3C)CC1)CC2	
25	17	14	CCCCC1CN(CC2CCOCC2)C(=O)OC12CCN(C1(C)CCN(C(=O)c3c(C)ncnc3C)CC1)CC2 (centres undefined)	
30	307	29	CCCCC1CN(CC2CCCCC2)C(=O)OC12CCN(C1CCN(C(=O)c3c(C)cccc3C)CC1)CC2 (centres undefined)	
	37	8	CCCC[C@H]1CN(CCC2CCOCC2)C(=O)OC12CCN(C1(C)CCN(C(=O)c3c(C)ncnc3C)CC1)CC2	
61	33	4	CCCC[C@H]1CN(CC2CCOCC2)C(=O)OC12CCN(C1(C)CCN(C(=O)c3c(C)ccnc3C)CC1)CC2	
22	28	12	CCCC[C@H]1CN(C)C(=O)OC12CCN(C1(C)CCN(C(=O)c3c(C)cc(C#N)nc3C)CC1)CC2	
24	42	4	CCCCC1CN(CC2CCOCC2)C(=O)OC12CCN(C1(C)CCN(C(=O)c3c(C)cc(C#N)nc3C)CC1)CC2 (racemic)	

— ChEMBL document CHEMBL1154224, “Spiropiperidine CCR5 antagonists” (Bioorg Med Chem Lett, 2009)
